{
  "source": "paper PMC10489644",
  "about": "“In Vitro Evaluation of the Potential for Drug Interactions by Salidroside” (Nutrients, 2023)",
  "key": {"OATP1B3": {"molecular_target": "T1, OATP1B3 (Homo sapiens, UniProt Q9NPD5)", "T1 sequence (Q9NPD5 1-702)": "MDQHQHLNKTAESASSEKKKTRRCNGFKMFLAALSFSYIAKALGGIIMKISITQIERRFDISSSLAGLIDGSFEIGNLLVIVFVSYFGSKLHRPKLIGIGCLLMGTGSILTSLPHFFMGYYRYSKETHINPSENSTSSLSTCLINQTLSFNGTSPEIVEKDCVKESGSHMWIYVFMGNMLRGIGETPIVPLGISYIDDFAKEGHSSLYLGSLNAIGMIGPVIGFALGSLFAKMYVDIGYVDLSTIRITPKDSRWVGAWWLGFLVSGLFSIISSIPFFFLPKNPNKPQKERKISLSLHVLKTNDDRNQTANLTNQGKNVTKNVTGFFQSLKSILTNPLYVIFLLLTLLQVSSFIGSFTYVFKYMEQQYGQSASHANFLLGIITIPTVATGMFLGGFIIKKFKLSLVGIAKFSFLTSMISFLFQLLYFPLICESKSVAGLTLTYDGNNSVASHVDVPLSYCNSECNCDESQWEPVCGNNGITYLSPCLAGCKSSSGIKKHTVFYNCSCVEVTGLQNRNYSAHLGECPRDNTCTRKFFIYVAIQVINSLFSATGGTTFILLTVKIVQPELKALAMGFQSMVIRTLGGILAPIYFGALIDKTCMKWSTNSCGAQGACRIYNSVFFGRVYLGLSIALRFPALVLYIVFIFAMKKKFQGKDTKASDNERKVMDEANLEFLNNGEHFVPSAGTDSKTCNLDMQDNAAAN", "assay": "Uptake transport inhibition in HEK293-OATP1B3 cells", "experimental": "HEK293-OATP1B1 and OATP1B3 cells were diluted to 1 × 10^6 cells/mL with DMEM supplemented with 1% non-essential amino acid (NEAA), 10% fetal bovine serum (FBS), 1% PS solution (100 U/mL penicillin-G and 100 μg/mL streptomycin), and seeded on a 96-well BioCoat™ poly-d-lysine plate at a density of 1 × 10^6 cells/mL. […] Once the cells were anchored on the plate, the cell culture was replaced with DMEM containing 10% FBS and 1% PS solution (100 U/mL penicillin-G and 100 μg/mL streptomycin solution) and cultured one day for the uptake and inhibition studies. The cell culture medium was removed from the 96-well plate, then rinsed twice with 0.1 mL/well of pre-warmed transport buffer. The transporter cells containing pre-incubation solution were pre-incubated at 37 °C for 30 min. Then the pre-incubation solution was removed and replaced with 0.1 mL/well of dosing solution containing a substrate, respectively (blank transporter buffer containing a substrate, transport buffer containing a substrate and PC, and transport buffer containing a substrate and salidroside). Then, the transporter cells were incubated at 37 °C for 2 min. After incubation, all solutions in the cells were discarded and rinsed with 0.10 mL/well of ice-cold transport buffer (4 °C) three times. […] All samples were shaken and centrifuged at 4000 rpm at 4 °C for 15 min and the supernatant was removed for future analysis by LC-MS/MS.\nEnzyme activity (%) = PAR with compound/PAR vehicle × 100."}, "CYP2C9": {"molecular_target": "CYP2C9 (Homo sapiens, UniProt P11712)", "sequence (P11712 whole entry)": "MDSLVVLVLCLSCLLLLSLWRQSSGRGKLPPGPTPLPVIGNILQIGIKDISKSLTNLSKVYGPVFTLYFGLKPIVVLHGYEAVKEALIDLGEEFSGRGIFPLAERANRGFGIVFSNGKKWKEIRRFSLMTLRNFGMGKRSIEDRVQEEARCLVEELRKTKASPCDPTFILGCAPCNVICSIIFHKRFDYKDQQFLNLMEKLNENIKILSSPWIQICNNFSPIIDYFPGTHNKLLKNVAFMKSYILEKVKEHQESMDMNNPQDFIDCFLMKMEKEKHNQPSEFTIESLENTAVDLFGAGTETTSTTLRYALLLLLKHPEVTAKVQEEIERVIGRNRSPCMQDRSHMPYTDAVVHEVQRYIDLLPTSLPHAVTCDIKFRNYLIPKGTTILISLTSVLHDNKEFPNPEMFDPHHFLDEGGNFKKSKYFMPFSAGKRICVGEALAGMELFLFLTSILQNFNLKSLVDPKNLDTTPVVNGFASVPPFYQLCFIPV", "assay": "Time-dependent inhibition (IC50 shift) in human liver microsomes", "procedure": "(§1) Incubation without 30 min pre-incubation, 178.5 µL of liver microsomes working was pre-incubated in a 37 °C water bath for 30 min. After the pre-incubation, 1.5 μL of test compound or control compound working solution, 60 μL of substrate working solution, and 60 μL of NADPH working solution were added; then, the reaction mixture was mixed by pipetting up and down and then incubated at 37 °C for 10 min. Incubation with 30 min pre-incubation. Next, 1.5 μL of test compound or control compound working solutions and 60 μL of NADPH working solution were added into 178.5 μL of liver microsome working solution, then the reaction mixture was mixed by pipetting up and down and then pre-incubated at 37 °C for 30 min. […]\n(§2) For competitive and time-dependent CYP inhibition, the peak area ratios (PAR) of analyte/internal standard were used to semi-quantitatively determine the concentration of acetaminophen (CYP1A2 activity), 4’-hydroxydiclofenac (CYP2C9), 4’-hydroxymephenytoin (CYP2C19), dextrorphan (CYP2D6), 1’-hydroxymidazolam (CYP3A4), 6β-hydroxytestosterone (CYP3A4), hydroxybupropion (CYP2B6), and N-desethylamodiaquine (CYP2C8), with terfenadine as the internal standard by LC-MS/MS method. The HPLC-MS system utilized an Acquity UPLC system and Sciex API 4000 mass spectrometer in ESI positive mode, with quantitation employing MRM. […]"}, "[1]": {"assay": "Rat pharmacokinetics after IV or oral dosing", "format": "in vivo, Male Sprague–Dawley rats", "details": "fa = fb/((1 − CL/Qh) × 100%)", "experimental": "An estimation of the maximum plasma concentration of salidroside in humans was made from the pharmacokinetics in rats after oral dosing and the recommended human daily dose of salidroside of 60 mg (two 30 mg capsules). Male Sprague–Dawley rats were dosed either with IV or orally at 12 mg/kg (N = 6/group). Salidroside was moderately cleared (21 mL/min/kg) and well absorbed orally."}, "CYP3A4 [2]": {"tested_on": "CYP3A4", "assay": "in vitro", "details": "human, Mean Fold Induction"}, "CYP2B6 [3]": {"tested_on": "CYP2B6", "assay": "in vitro", "details": "human; for Mean Fold Induction: 48 h", "experimental": "The sandwich medium was removed, and the hepatocytes were treated with incubation solutions containing salidroside (1, 5, 10, and 30 µM), vehicle (0.1% DMSO), or positive inducers in triplicate for 24 h after the cultures were established. The incubation solution was aspirated and replaced with incubation solution containing the same concentrations of salidroside, vehicle, or positive inducers for an additional 24 h. The total treatment period was 48 h. After the treatment period of 48 h, the incubation solution was aspirated. Hepatocytes were washed twice with pre-warmed HBSS containing 10 mM HEPES (HBSS I) and then the remaining solution was aspirated. Hepatocytes were washed once with pre-warmed HBSS I and incubated with 140 μL of RLT (lysis buffer from RNeasy 96 Kit) supplemented with 1% β-mercaptoethanol. Plates were then stored at −70 °C in a freezer until RNA analysis. Before RNA extraction, the frozen plate was thawed, and cell lysates were transferred to 96-well plates. RNA isolation was performed using a QIAcube RNA extraction system. Reverse transcription was performed to obtain cDNA. Quantification of the selective genes by real-time quantitative polymerase chain reaction (qPCR) was performed with TaqMan universal PCR Master Mix on the Bio-rad CFX384 TouchTM Real-Time PCR System. The relative change in the mRNA level of the selected target genes induced by each test compound was expressed in relation to the vehicle control sample, and fold changes in gene expression were determined by the ΔΔCt method."}, "CYP3A4/5": {"tested_on": "CYP3A4/5", "assay": "in vitro", "details": "human, microsomes", "procedure": "as §1, §2"}, "CYP2B6 [4]": {"molecular_target": "T2, CYP2B6 (Homo sapiens, UniProt P20813)", "T2 sequence (P20813 1-491)": "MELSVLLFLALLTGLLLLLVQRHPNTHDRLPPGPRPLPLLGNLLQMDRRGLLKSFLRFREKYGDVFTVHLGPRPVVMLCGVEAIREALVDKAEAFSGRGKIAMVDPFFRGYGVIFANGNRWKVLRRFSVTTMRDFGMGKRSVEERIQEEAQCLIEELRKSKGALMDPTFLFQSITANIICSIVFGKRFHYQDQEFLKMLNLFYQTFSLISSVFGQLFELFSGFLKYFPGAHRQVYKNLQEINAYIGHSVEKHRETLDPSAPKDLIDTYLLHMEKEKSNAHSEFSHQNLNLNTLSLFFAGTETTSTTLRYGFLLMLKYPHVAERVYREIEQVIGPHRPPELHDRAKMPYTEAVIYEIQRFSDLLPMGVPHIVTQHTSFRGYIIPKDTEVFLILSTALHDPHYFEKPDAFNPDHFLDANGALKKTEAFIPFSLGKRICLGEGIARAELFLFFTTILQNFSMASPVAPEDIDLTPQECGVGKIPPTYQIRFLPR", "assay": "biochemical", "procedure": "Test compound/controls working solution or DMSO were added in 238.5 µL of liver microsomes working solution, mixed well by pipetting several times and pre-incubated in a 37 °C shaking water bath for 5 min. Following the pre-incubation, 60 µL of NADPH working solution were added, mixed well by pipetting several times, and incubated in a 37 °C shaking water bath for 10 min. Following the incubation, 300 µL of quenching solution were immediately added and vortexed for ~20 s to mix. All samples were centrifuged at 4000 rpm for 15 min at 4 °C and then the supernatant was transferred for LC-MS/MS analysis. IC50 values were determined by the Hill slope equation using Graph Pad Prism.\nFor competitive and time-dependent CYP inhibition, the peak area ratios (PAR) of analyte/internal standard were used to semi-quantitatively determine the concentration of acetaminophen (CYP1A2 activity), 4’-hydroxydiclofenac (CYP2C9), 4’-hydroxymephenytoin (CYP2C19), dextrorphan (CYP2D6), 1’-hydroxymidazolam (CYP3A4), 6β-hydroxytestosterone (CYP3A4), hydroxybupropion (CYP2B6), and N-desethylamodiaquine (CYP2C8), with terfenadine as the internal standard by LC-MS/MS method. The HPLC-MS system utilized an Acquity UPLC system and Sciex API 4000 mass spectrometer in ESI positive mode, with quantitation employing MRM. Samples were injected onto an Atlantis T3 5 μM column (2.1 x 50 mm). […]"}, "CYP3A4 [5]": {"tested_on": "CYP3A4", "details": "human, 48 h"}},
  "note": "“Also recorded” adds a separate entry of the source. Where two headings read alike, the source gives them in different places.",
  "data": [
    {"smiles": "OC[C@H]1O[C@@H](OCCc2ccc(O)cc2)[C@H](O)[C@@H](O)[C@@H]1O", "note": "[Salidroside]", "values": [
      {"measurement": "IC50", "setting": "OATP1B3", "value": "> 100", "unit": "µM"},
      {"measurement": "mean control activities (% of control activity) / inhibition of OATP1B3", "setting": "OATP1B3; 100 µM", "value": "unchanged; also recorded: no inhibition"},
      {"measurement": "IC50", "setting": "CYP2C9", "value": "> 50", "unit": "µM"},
      {"measurement": "estimated oral absorption (fa)", "setting": "[1]", "value": 46, "unit": "%"},
      {"measurement": "fold induction at 48 h, 1 µM", "setting": "CYP3A4 [2]", "value": 0.7},
      {"measurement": "Mean Fold Induction", "setting": "CYP2B6 [3]; 1 µM", "value": 0.6, "unit": "fold"},
      {"measurement": "Mean Fold Induction", "setting": "CYP2B6 [3]; 10 µM", "value": 1.1, "unit": "fold"},
      {"measurement": "fold induction at 48 h, 1 µM", "setting": "CYP2B6 [3]; Mean Fold Induction", "value": 0.9},
      {"measurement": "fold induction at 48 h, 3 µM", "setting": "CYP2B6 [3]; Mean Fold Induction", "value": 1.2},
      {"measurement": "fold induction at 48 h, 10 µM", "setting": "CYP2B6 [3]; Mean Fold Induction", "value": 0.8},
      {"measurement": "IC50 at 10 min", "setting": "CYP3A4/5", "value": "> 50", "unit": "µM"},
      {"measurement": "IC50", "setting": "CYP2B6 [4]", "value": "> 50", "unit": "µM"},
      {"measurement": "% Positive Control", "setting": "CYP3A4 [5]; 3 µM", "value": 0, "unit": "%"},
      {"measurement": "% Positive Control", "setting": "CYP3A4 [5]; 10 µM", "value": 0, "unit": "%"}
    ]}
  ]
}
